The values that follow are results of earlier work, collected in PubChem BioAssay AID1259410 (Chemical Carcinogenesis Research Information System (CCRIS), 2018).

The subject of the data set is rodent tumor promotion studies, tumor incidence. The data set can be described thus: CCRIS tumor promotion studies.

Turning to `O=C(O)C(Cl)(Cl)Cl`, the outcome was “liver: adenoma” (Carcinogen: N-METHYL-N-NITROSOUREA, 684-93-5, Doses [Carcinogen]: 25 MG/KG IN STERILE SALINE ONCE, Doses [Promoter]: 0, 25 MMOL/L IN DRINKING WATER FOR 44 WK BEGINNING 2 WK POST CARCINOGEN DOSE (STUDY DURATION: 46 WK), Route [Carcinogen]: INTRAPERITONEAL, Route [Promoter]: ORAL, Species: MOUSE, Strain/Sex: B6C3F1/FEMALE); “liver: adenoma” (Carcinogen: N-METHYL-N-NITROSOUREA, 684-93-5, Doses [Carcinogen]: 25 MG/KG ONCE AT 15 D OF AGE, Doses [Promoter]: 0, 20 NMOL/L IN DRINKING WATER FOR 31 WK BEGINNING AT 7 WK OF AGE (STUDY DURATION: 31 WK), Route [Carcinogen]: INTRAPERITONEAL, Route [Promoter]: ORAL, Species: MOUSE, Strain/Sex: B6C3F1/FEMALE); “liver: adenoma, carcinoma” (Carcinogen: N-METHYL-N-NITROSOUREA, 684-93-5, Doses [Carcinogen]: 25 MG/KG ONCE AT 15 D OF AGE, Doses [Promoter]: 0, 20 NMOL/L IN DRINKING WATER FOR 31 WK BEGINNING AT 7 WK OF AGE (STUDY DURATION: 52 WK), Route [Carcinogen]: INTRAPERITONEAL, Route [Promoter]: ORAL, Species: MOUSE, Strain/Sex: B6C3F1/FEMALE); “liver: adenoma, carcinoma” (Carcinogen: N-METHYL-N-NITROSOUREA, 684-93-5, Doses [Carcinogen]: 25 MMG/KG ONCE AT 15 D OF AGE, Doses [Promoter]: 0, 6.67, 20 NMOL/L IN DRINKING WATER FOR 52 WK BEGINNING AT 7 WK OF AGE (STUDY DURATION: 52 WK), Doses [Promoter]: 0, 6.67, 20 NMOL/L IN DRINKING WATER FOR 52 WK BEGINNING AT 7 WK OF AGE (STUDY DURATION: 52 WK), Route [Carcinogen]: INTRAPERITONEAL, Route [Promoter]: ORAL, Species: MOUSE, Strain/Sex: B6C3F1/FEMALE). For the compound `C=CC(N)=O`, where the note is “Carcinogen: METHYLNITROSOUREA [684-93-5], Doses [Carcinogen]: 50 MG/KG BW ONCE, Doses [Promoter]: 0, 20, 40 PPM IN DRINKING WATER AFTER CARCINOGEN ADMINISTRATION (STUDY DURATION: 30 WK), Doses [Promoter]: 0, 20, 40 PPM IN DRINKING WATER AFTER CARCINOGEN ADMINISTRATION (STUDY DURATION: 30 WK), Route [Carcinogen]: IP INJECTION, Route [Promoter]: DRINKING WATER, Species: RAT, Strain/Sex: SPRAGUE-DAWLEY/FEMALE (20/GROUP)”, the outcome was “mammary gland: adenocarcinoma (significant increase in tumor incidence at 40 ppm”. Turning to `Cc1cc(=O)n(-c2ccccc2)n1C`, the outcome (Carcinogen: DIHYDROXY-DI-N-PROPYLNITROSAMINE, 53609-64-6, URACIL, 66-22-8, Carcinogen: DIHYDROXY-DI-N-PROPYLNITROSAMINE, 53609-64-6, URACIL, 66-22-8, Doses [Carcinogen]: 1% DHPN IN DRINKING WATER AND 3% URACIL IN DIET FOR 4 WK, Doses [Promoter]: 0, 1% IN DIET BEGINNING 1 WK POST CARCINOGEN TREATMENT AND CONTINUING FOR 35 WK (STUDY DURATION: 40 WK), Route [Carcinogen]: ORAL, ORAL, Route [Promoter]: ORAL, Species: RAT, Strain/Sex: F344/MALE) is given as “kidney: adenoma or adenocarcinoma”.

Take `CC(=O)[C@H]1[C@H](C#N)C[C@H]2[C@@H]3CC=C4C[C@@H](O)CC[C@]4(C)[C@H]3CC[C@@]21C`: under “Carcinogen: DIISOPROPANOLNITROSAMINE [53609-64-6], Doses [Carcinogen]: SINGLE DOSE OF 2.5 G/KG BW, Doses [Promoter]: 1000 PPM IN DIET BEGINNING 1 WK AFTER DIPN TREATMENT FOR 19 WKS (STUDY DURATION: 20 WKS), Route [Carcinogen]: SUBCUTANEOUS INJECTION, Route [Promoter]: DIET, Species: RAT, Strain/Sex: SPRAGUE-DAWLEY/MALE”, the outcome is “thyroid: cystic adenoma, follicular adenoma, and follicular carcinoma”. Turning to `Cc1cc(O)c2c(c1)Cc1cccc(O)c1C2=O`, the outcome runs as follows: (Carcinogen: 7,12-DIMETHYLBENZ(A)ANTHRACENE, Doses [Carcinogen]: 10 NMOL ONCE, Doses [Promoter]: 50 UG 2/WK FOR 21 WK, Route [Carcinogen]: DERMAL, Route [Promoter]: DERMAL, Species: MOUSE, Strain/Sex: SENCAR/FEMALE) “integumentary system (skin): papilloma”; (Carcinogen: 7,12-DIMETHYLBENZ[A]ANTHRACENE, 57-97-6, Doses [Carcinogen]: 6.4 UG ONCE, Doses [Promoter]: 0, 52.8 UG 1/WK FOR 10 WK BEGINNING 2 WK POST CARCINOGEN DOSE (STUDY DURATION: 32 WK), Route [Carcinogen]: DERMAL, Route [Promoter]: DERMAL, Species: MOUSE, Strain/Sex: SENCAR/FEMALE) “skin: papilloma”. For the compound `C[C@]12CC[C@@H]3c4ccc(O)cc4CC[C@H]3[C@@H]1CC[C@@H]2OC(=O)CCc1ccccc1` (tested in a mixture with another compound), the outcome (Carcinogen: N-NITROSOMORPHOLINE, Doses [Carcinogen]: IG, Route [Carcinogen]: GAVAGE, Route [Promoter]: INTRAMUSCULAR, Species: RAT, Strain/Sex: FEMALE) was “liver”.

Regarding `Nc1nc(-c2ccccc2)c(-c2ccccc2)s1`, the outcome runs as follows: (Carcinogen: N-ETHYL-N-HYDROXYETHYLNITROSAMINE, 13147-25-6, Doses [Carcinogen]: 1000 PPM IN DRINKING WATER FOR 2 WK, Doses [Promoter]: 0, 1.06% IN DIET FOR 14 WK BEGINNING POST CARCINOGEN TREATMENT (STUDY DURATION: 32 WK), Route [Carcinogen]: ORAL, Route [Promoter]: ORAL, Species: RAT, Strain/Sex: WISTAR/MALE) “kidney: renal cell tumor”; (Carcinogen: N-ETHYL-N-HYDROXYETHYLNITROSAMINE, 13147-25-6, Doses [Carcinogen]: 1000 PPM IN DRINKING WATER FOR 2 WK, Doses [Promoter]: 0, 1.06% IN DIET FOR 30 WK BEGINNING POST CARCINOGEN TREATMENT (STUDY DURATION: 32 WK), Route [Carcinogen]: ORAL, Route [Promoter]: ORAL, Species: RAT, Strain/Sex: WISTAR/MALE) “kidney: renal cell tumor”. On to `ClC1=C(Cl)C2(Cl)C3C(Cl)C(Cl)CC3C1(Cl)C2(Cl)Cl` (stereo not drawn), for which the outcome (Carcinogen: DIETHYLNITROSAMINE, 55-18-5, Doses [Carcinogen]: 20 PPM IN DRINKING WATER FOR 14 WK, Doses [Promoter]: 0, 25, 50 PPM TECHNICAL GRADE IN DIET BEGINNING 4 WK POST LAST CARCINOGEN DOSE AND CONTINUING FOR 25 WK (STUDY DURATION:, Doses [Promoter]: 0, 25, 50 PPM TECHNICAL GRADE IN DIET BEGINNING 4 WK POST LAST CARCINOGEN DOSE AND CONTINUING FOR 25 WK (STUDY DURATION:, Route [Carcinogen]: ORAL, Route [Promoter]: ORAL, Species: MOUSE, Strain/Sex: B6C3F1/MALE) is reported as “liver: adenoma or carcinoma”. With `CCCCCCCCCCCCCC1(CC(=O)OC2C(C)C3(O)C(C=C(CO)CC4(O)C(=O)C(C)=CC43)C3C(C)(C)C23OC(C)=O)OCC(C)(C)N1[O]` (stereo not drawn), under “Carcinogen: 7,12-DIMETHYLBENZ[A]ANTHRACENE, 57-97-6, Doses [Carcinogen]: 100 NMOL ONCE, Doses [Promoter]: 0, 5 NMOL 2/WK FOR 36 WK BEGINNING 1 WK POST CARCINOGEN DOSE (STUDY DURATION: 25 WK), Route [Carcinogen]: DERMAL, Route [Promoter]: DERMAL, Species: MOUSE, Strain/Sex: NMRI/FEMALE”, the outcome is reported as “skin: tumor”. Consider `c1ccc2c(c1)cc1ccc3cccc4ccc2c1c34`, for which, for the setting “Carcinogen: BENZO[A]PYRENE [50-32-8], Doses [Carcinogen]: 8 MMOL/MOUSE 3X/WK FOR 25 WKS (STUDY DURATION: 30 WKS), Doses [Promoter]: UVA 40 KJ/M2 FOR 25 WKS 2 HR AFTER CARCINOGEN TREATMENT (STUDY DURATION: 30 WKS), Route [Carcinogen]: DERMAL, Route [Promoter]: IRRADIATION TO SKIN, Species: MOUSE, Strain/Sex: SKH-1/FEMALE (20/GROUP)”, the outcome is “skin: tumor incidence and multiplicity increased”. For the compound `Cc1ccc(O)cc1`, the outcome (Carcinogen: 7,12-DIMETHYLBENZ(A)ANTHRACENE, Doses [Carcinogen]: TOP, Route [Carcinogen]: DERMAL, Route [Promoter]: DERMAL, Species: MOUSE, Strain/Sex: FEMALE) was “integumentary system (skin)”. Take `O=C1c2ccccc2C(=O)c2c(O)cccc21`: the outcome is, setting by setting: (Carcinogen: METHYLAZOXYMETHANOL ACETATE, 592-62-1, Doses [Carcinogen]: 25 MG/KG BW 1/WK FOR 2 WK, Doses [Promoter]: 0, 1% IN DIET FOR 42 WK BEGINNING 1 WK POST CARCINOGEN TREATMENT (STUDY DURATION: 44 WK), Route [Carcinogen]: INTRAPERITONEAL, Route [Promoter]: ORAL, Species: RAT, Strain/Sex: ACI/FEMALE) “intestine: adenoma”; (Carcinogen: METHYLAZOXYMETHANOL ACETATE, 592-62-1, Doses [Carcinogen]: 25 MG/KG BW 1/WK FOR 2 WK, Doses [Promoter]: 0, 1% IN DIET FOR 42 WK BEGINNING 1 WK POST CARCINOGEN TREATMENT (STUDY DURATION: 44 WK), Route [Carcinogen]: INTRAPERITONEAL, Route [Promoter]: ORAL, Species: RAT, Strain/Sex: ACI/MALE) “intestine: adenoma, adenocarcinoma”.
